Patent US20240207454A1, “NEURO-BEHAVIORAL ASSAY FOR PHYSIOLOGICAL EVALUATION OF WATER-SOLUBLE ANESTHETICS” (Northeastern University, priority 2022, published 2024)

Test system: Apteronotus leptorhynchus
Test: Neuro-behavioral assay: effect on EOD frequency
Assay type: in vivo
Conditions: for EOD frequency lower than median baseline frequency immediately after return to isolation tank (range among fish): 2.5% urethane or 0.02% MS-222 immersion until fin and opercular movement ceased; for EOD frequency lower than median baseline frequency immediately after return to isolation tank (range among fish) / EOD frequency lower than median baseline frequency immediately after return to isolation tank (median) / Median EOD frequency change, 30-min interval before vs 15-min interval after start of anesthesia: Median: n=8 fish; for EOD frequency lower than median baseline frequency immediately after return to isolation tank (median): 2.5% urethane or 0.02% MS-222 immersion; for Recovery model parameter a (ratio EOD frequency vs baseline at t=0), estimate / Recovery model parameter b, estimate / Recovery model parameter c, estimate / Recovery model parameter d, estimate: robust nonlinear regression, Equation 1, 2.5% urethane or 0.02% MS-222; for Recovery model (Eq. 3) parameter a: normalized frequency
Source text: For the assay, adult brown ghost knifefish (Apteronotus leptorhynchus; Gymnotiformes, Teleostei), with total lengths of approximately 12-15 cm, are used. The fish are imported from their natural habitat in South and Central America.
At least 1 week before using the assay for the first run, the fish is transferred from a community tank to an isolation tank (50 cm×30 cm×30 cm) equipped with aquarium thermostat heaters and air-driven corner filters. The fish is kept in aquarium water prepared by adding a mixture of inorganic salts (81 mmol/L MgSO4·7H2O; 107 mmol/L KCl; 12 mmol/L NaH2PO4·2H2O; 732 mmol/L CaSO4·2H2O) to deionized water until a water conductivity of approximately 150-300 μS/cm is reached. Water temperature, determined during the experiments every 10 min with a calibrated high-precision (accuracy+0.05° C.) digital thermometer, is kept in the range of 25.0-28.0° C. across all assays. Variation is limited to 1.0° C. in an individual assay. A 12:12 h light:dark photoperiod is maintained with a timer. The fish are fed red mosquito larvae daily, after the assay run on that day has been completed.
In each isolation tank, an opaque cylindrical plastic tube (length: 190 mm; inner diameter: 38 mm; outer diameter: 42 mm) provides shelter and is readily accepted by the fish, particularly during the light phase, when individuals of this nocturnal species spend most of the time in shelter places. A pair of stainless-steel electrodes is mounted on the inside of each tube (see section 4.1.2, ‘EOD recording,’ below).
Differential recording of the fish's EOD is done through the pair of stainless-steel electrodes built into the shelter tube (FIG. 1). […] This allows the fish's EOD to be recorded continuously without interruptions. At the same time, mesh size is chosen such that sustained water flow through the tube is ensured. A strip of stainless steel is placed in the tank to serve as a ground electrode.
The signal is AC amplified (gain: 30×; low-pass filter: none; high-pass filter: 200 Hz) and then digitized at a sampling rate of 50 kHz.
The sampled time-voltage data (ti, vi), i=1, . . . , N, are filtered in subsequent, 1-s-long windows using a bandpass filter with frequency band [0.8, 1.2]×f0, where f0 is the fundamental frequency determined from the power spectrum of the signal within the associated time window.
The filtered time series data (ti, Vi), i=1, . . . , N, are further processed to determine the EOD frequency at a higher time resolution. First, tuple j containing the indices of all instants where the filtered signal changes sign to a positive value is determined:
Then, tuple t^+ of time instances when the signal crosses the time axis upwards is calculated using interpolation:
Here M=|j| denotes the number of elements in j (the number of all crossings). Finally, time-frequency pairs (Tk, fk) are computed as
for k=1, . . . , M−m. Here m=10 is the number of averaged time periods used for EOD frequency calculation.
Since the EOD frequency of A. leptorhynchus is temperature dependent, all measured frequencies are adjusted to a reference temperature (arbitrarily chosen to be 26° C.) so that discharge frequencies at different water temperatures can be compared. This adjustment of a frequency f1 (in Hz) measured at a temperature T1 (in ° C.) to the reference temperature T2=26° C. is calculated as
where f2 is the expected frequency at T2 and Q10=1.56, as determined empirically.
The experimental design is outlined in FIG. 2. To determine the baseline EOD frequency, the fish's EOD was recorded for 30 min. Then, the fish was transferred into a glass beaker containing either 2.5% urethane (Acros Organics, New Jersey, USA) or 0.02% MS-222 (Western Chemical, Washington, USA), each dissolved in water from the fish's isolation tank. As a control, the fish was moved into an identical glass beaker containing aquarium water only. […]

CCOC(=O)c1cccc(N)c1 [MS-222, 3-aminobenzoic acid ethyl ester methanesulfonate]
EOD frequency lower than median baseline frequency immediately after return to isolation tank (range among fish): 129-279 Hz | EOD frequency lower than median baseline frequency immediately after return to isolation tank (median): 168 Hz | Recovery model parameter a (ratio EOD frequency vs baseline at t=0), estimate (8 fish): 0.3584 1 | Recovery model parameter b, estimate (8 fish): 0.52 min | Recovery model parameter c, estimate (8 fish): 1.0024 | Recovery model parameter d, estimate (8 fish): -9.0311e-06 min⁻¹

CCOC(N)=O [urethane]
EOD frequency lower than median baseline frequency immediately after return to isolation tank (range among fish): 104-142 Hz | EOD frequency lower than median baseline frequency immediately after return to isolation tank (median): 133 Hz | EOD frequency drop during first phase of anesthesia (2.5% urethane, first phase lasting roughly 30 s): approximately 100 Hz | Recovery model parameter a (ratio EOD frequency vs baseline at t=0), estimate (8 fish): 0.8428 1 | Recovery model parameter b, estimate (8 fish): 21.333 min | Recovery model parameter c, estimate (8 fish): 1.0228 | Recovery model parameter d, estimate (8 fish): -2.8717e-05 min⁻¹

C=CCc1ccc(O)c(OC)c1 [eugenol]
Maximum EOD frequency drop vs median baseline frequency (median) (60 μL/L eugenol, 5 min, 8 fish): 232 Hz | Maximum EOD frequency drop vs median baseline frequency (range) (60 μL/L eugenol, 5 min, 8 fish): 184-277 Hz | Latency until fish started to lower the EOD frequency after transfer into the anesthetic solution (eugenol 30-60 μL/L): 1 to 2 min | Recovery model (Eq. 3) parameter b (eugenol 30 μL/L): 1.4568 min | Recovery model (Eq. 3) parameter c (eugenol 30 μL/L): 1.0089 | Recovery model (Eq. 3) parameter d (eugenol 30 μL/L): -3.2299e-05 min⁻¹ | Difference in the largest normalized EOD frequency drops: Median (eugenol 30 μL/L vs. Control): −0.1650 | Median EOD frequency change, 30-min interval before vs 15-min interval after start of anesthesia: Median (eugenol 30 μL/L, 5 min): −48.18 Hz | Recovery model (Eq. 3) parameter a (eugenol 30 μL/L): 0.7465 1 | Recovery model (Eq. 3) parameter b (eugenol 45 μL/L): 1.4064 min | Recovery model (Eq. 3) parameter c (eugenol 45 μL/L): 1.0084 | Recovery model (Eq. 3) parameter d (eugenol 45 μL/L): -3.3821e-05 min⁻¹ | Difference in the largest normalized EOD frequency drops: Median (eugenol 45 μL/L vs. 30 μL/L): −0.0715 | Median EOD frequency change, 30-min interval before vs 15-min interval after start of anesthesia: Median (eugenol 45 μL/L, 5 min): −65.54 Hz | Recovery model (Eq. 3) parameter a (eugenol 45 μL/L): 0.6344 1 | Recovery model (Eq. 3) parameter b (eugenol 60 μL/L): 1.5816 min | Recovery model (Eq. 3) parameter c (eugenol 60 μL/L): 1.0131 | Recovery model (Eq. 3) parameter d (eugenol 60 μL/L): -6.2321e-05 min⁻¹ | Difference in the largest normalized EOD frequency drops: Median (eugenol 60 μL/L vs. 45 μL/L): −0.0349 | Median EOD frequency change, 30-min interval before vs 15-min interval after start of anesthesia: Median (eugenol 60 μL/L, 5 min): −88.65 Hz | Recovery model (Eq. 3) parameter a (eugenol 60 μL/L): 0.5649 1
